Values joined by “and” are separate entries in the source; they are usually repeats but may differ in a detail not shown here. Equal entries are not always repeated.
Key:
[1] = tested on: S. Typhimurium SL1344 (sifB::gfp) in RAW 264.7 macrophages; assay: SAFIRE macrophage assay: intracellular bacterial load (GFP signal within macrophages); assay type: cell-based, Salmonella enterica serotype Typhimurium
Excerpt: (§1) In SAFIRE, we used MATLAB software to count the number of macrophages that remain adherent and retain the red fluorescence of MitoTracker, an indicator of voltage across the mitochondrial inner membrane. MATLAB then calculates the signal from bacteria (green fluorescent protein [GFP]) that overlaps with macrophages, as defined by MitoTracker, to estimate bacterial load. […] For example, we observed that the 6-trifluoropyrimidin-2-yl group on the right-hand side of EPM35 is apparently toxic to macrophages. Non-toxic analogs that reduced bacterial load by at least 60% at 5 µM and 25 µM in SAFIRE, as compared with DMSO, progressed and were evaluated in SAFIRE across eight or more concentrations, ranging from 0.001 µM to 50 µM (n = 2). […] Each of the top 13 analogs had at least an eightfold increase in potency and were not toxic for macrophages at 50 µM in the SAFIRE assay (Fig. 1C).
(§2) As previously described ([18]), RAW 264.7 macrophages (between passages 1 and 6) were grown in complete Dulbecco’s modified Eagle’s medium (DMEM) to approximately 70% to 90% confluence, scraped, washed, resuspended, diluted to 5 × 10^4 in 100 µL, and seeded in black, 96-well, glass-bottomed plates (Brooks Life Sciences catalog number MGB096-1-2-LG-L) at 37°C with 5% CO2. Twenty-four hours later, bacteria grown overnight in LB were diluted into 50 µL phosphate buffered saline (PBS) and added to a final concentration of 1 × 10^7 S. Typhimurium SL1344 (sifB::gfp) per milliliter ([78]) for an approximate multiplicity of infection of 30 bacteria per macrophage cell. Forty-five minutes after bacterial addition, gentamicin (Sigma catalog number G1264) was added to a final concentration of 40 µg/mL to inhibit the growth of remaining extracellular bacteria. Two hours after infection, gentamicin-containing medium was removed and replaced with 200 µL fresh DMEM with compound or DMSO (Sigma catalog number 276855) to the stated final concentrations. At 17.5 h after infection, PBS containing MitoTracker Red CMXRos (Life Technologies catalog number M7512), a vital dye for mitochondrial electric potential, was added to a final concentration of 100 nM. At 18 h after infection, 16% paraformaldehyde was added to a final concentration of 4% and incubated at room temperature for 15 min. Cells were washed twice with PBS and stained for 20 min with 1 µM 4′,6-diamidino-2-phenylindole (DAPI), a vital dye for double-stranded DNA, and stored in 90% glycerol in PBS until imaging. Samples were imaged in six fields of view per well using a semiautomated Yokogawa CellVoyager CV1000 confocal scanner system with a 20×, 0.75-numerical aperture (NA) objective. A MATLAB algorithm calculated bacterial accumulation (GFP fluorescence) within macrophages, as defined by DAPI and MitoTracker Red. GFP^+ macrophage area was defined as the number of GFP-positive pixels per macrophage divided by the total number of pixels per macrophage, averaged across all macrophages in the field ([34]).

RAW 264.7 macrophages = assay: SAFIRE macrophage assay: host toxicity (adherent macrophage count, morphology); assay type: cell-based
Excerpt: as §1, §2

[2] = 5 uM compound, n=1, DMSO solvent control = 98, rifampicin 2 μg/mL = 65
[3] = 25 uM compound, n=1, DMSO solvent control = 98, rifampicin 2 μg/mL = 65
[4] = 5 uM compound, n=1, DMSO solvent control = 100
[5] = 25 uM compound, n=1, DMSO solvent control = 100
[6] = 5 uM, 'Toxic' given instead of a score
[7] = 25 uM, 'Toxic' given instead of a score

| Structure (SMILES) | Avg Antibact Score ([1]; control, rifampicin 2 μg/mL, DMSO = 98) | Avg Cell # Score (RAW 264.7 macrophages; control, rifampicin 2 μg/mL, DMSO = 100) | 5 uM Avg Antibacterial Score [1, 2] | 25 uM Avg Antibacterial Score [1, 3] | IC50 ([1]; Salmonella enterica, TYPHIMURIUM, RAW264.7, read-out: SAFIRE IC50) [nM] | 5 uM Avg Cell # Score (RAW 264.7 macrophages; [4]) | 25 uM Avg Cell # Score (RAW 264.7 macrophages; [5]) | 5 uM Avg Antibacterial Score [1, 6] | 25 uM Avg Antibacterial Score [1, 7] | 5 uM Avg Cell # Score (RAW 264.7 macrophages; 5 uM) | 25 uM Avg Cell # Score (RAW 264.7 macrophages; 25 uM) |
| --- | --- | --- | --- | --- | --- | --- | --- | --- | --- | --- | --- |
| CO[C@H]1/C=C/O[C@@]2(C)Oc3c(C)c(O)c4c(O)c(c(/C=N/N5CCN(C)CC5)c(O)c4c3C2=O)NC(=O)/C(C)=C\C=C\[C@H](C)[C@H](O)[C@@H](C)[C@@H](O)[C@@H](C)[C@H](OC(C)=O)[C@@H]1C [Rifampicin] | 65 | 111 | – | – | – | – | – | – | – | – | – |
| N[C@@H]1CCN(C[C@H](O)COc2ccc(Cl)c(Cl)c2)C1 [CU237] | – | – | 34 | 11 | 8.2 | 125 | 107 | – | – | – | – |
| NCC1CCN(CC(O)COc2cc(Cl)cc(Cl)c2)C1 (stereo not shown) [CU209] | – | – | – | – | – | – | – | 41 | 14 | 143 | 94 |
| OC(COc1ccc(Cl)cc1)CN1CCC(Nc2nccs2)CC1 (stereo not shown) [CU053] | – | – | – | – | – | – | – | 101 | 42 | 127 | 140 |
| CC(=O)Nc1cccc(OCC(O)CN2CCC(Nc3nccc(C(F)(F)F)n3)C2)c1 (stereo not shown) [CU100] | – | – | – | – | – | – | – | 105 | 110 | 80 | 96 |
| NC1CCN(CC(O)COc2ccccc2C(F)(F)F)CC1 (stereo not shown) [CU233] | – | – | 47 | 34 | – | 128 | 104 | – | – | – | – |
| OC(CNC1(c2ccccc2)CC1)COc1ccc(Cl)c(Cl)c1 (stereo not shown) [CU132] | – | – | – | – | – | – | – | 102 | Toxic | 82 | 39 |
| O=C1CN(CC(O)COc2ccc(Cl)c(Cl)c2)CCN1 (stereo not shown) [CU184] | – | – | – | – | – | – | – | 103 | 102 | 91 | 97 |
| OC(COc1ccccc1)CN1CCC(Nc2nccc(C(F)(F)F)n2)CC1 (stereo not shown) [CU034] | – | – | – | – | – | – | – | 99 | Toxic | 86 | 57 |
| OC(COc1cccc(Br)c1)CN1CCC(Nc2nccc(C(F)(F)F)n2)CC1 (stereo not shown) [CU107] | – | – | – | – | – | – | – | 10 | Toxic | 90 | 41 |
| COCCN1CCN(CC(O)COc2ccc(Cl)c(Cl)c2)CC1 (stereo not shown) [CU211] | – | – | – | – | – | – | – | 100 | 50 | 120 | 115 |
| OC(COc1ccc(Cl)c(Cl)c1)CN1CCC(Oc2ncccn2)CC1 (stereo not shown) [CU158] | – | – | – | – | – | – | – | 110 | 61 | 106 | 103 |
| NC1CCCN(CC(O)COc2ccc(Cl)c(Cl)c2)CC1 (stereo not shown) [CU230] | – | – | – | – | – | – | – | 34 | Toxic | 134 | 19 |
| CNC1CCN(C[C@@H](O)COc2ccc(Cl)c(Cl)c2)C1 (stereo partly shown) [CU163] | – | – | – | – | – | – | – | 65 | 47 | 101 | 111 |
| N[C@H]1CC[C@H](NCC(O)COc2ccc(Cl)c(Cl)c2)CC1 (stereo partly shown) [CU246] | – | – | 72 | 19 | – | 117 | 106 | – | – | – | – |
| c1ccc2c(CN3CCNCC3)cccc2c1 [CU207] | – | – | – | – | – | – | – | 98 | 59 | 113 | 121 |
| OC(COc1ccc(F)c(F)c1)CN1CCC(Nc2ncccn2)CC1 (stereo not shown) [CU170] | – | – | – | – | – | – | – | 109 | 107 | 100 | 107 |

| Structure (SMILES) | Avg Antibact Score ([1]; control, rifampicin 2 μg/mL, DMSO = 98) | Avg Cell # Score (RAW 264.7 macrophages; control, rifampicin 2 μg/mL, DMSO = 100) | 5 uM Avg Antibacterial Score [1, 2] | 25 uM Avg Antibacterial Score [1, 3] | IC50 ([1]; Salmonella enterica, TYPHIMURIUM, RAW264.7, read-out: SAFIRE IC50) [nM] | 5 uM Avg Cell # Score (RAW 264.7 macrophages; [4]) | 25 uM Avg Cell # Score (RAW 264.7 macrophages; [5]) | 5 uM Avg Antibacterial Score [1, 6] | 25 uM Avg Antibacterial Score [1, 7] | 5 uM Avg Cell # Score (RAW 264.7 macrophages; 5 uM) | 25 uM Avg Cell # Score (RAW 264.7 macrophages; 25 uM) |
| --- | --- | --- | --- | --- | --- | --- | --- | --- | --- | --- | --- |
| NC1CCN(CC(O)COc2ccc3ccccc3c2)CC1 (stereo not shown) [CU214] | – | – | – | – | – | – | – | 28 | Toxic | 103 | 22 |
| OC(COc1ccccc1C(F)(F)F)CN1CCC(Nc2nccc(C(F)(F)F)n2)C1 (stereo not shown) [CU112] | – | – | – | – | – | – | – | 47 | Toxic | 88 | 59 |
| O=C(CCOc1ccc(Cl)c(Cl)c1)N1CCC(Nc2nccc(C(F)(F)F)n2)CC1 [CU110] | – | – | – | – | – | – | – | 107 | Toxic | 79 | 27 |
| OC(COc1cccc2ncccc12)CN1CCC(Nc2nccc(C(F)(F)F)n2)CC1 (stereo not shown) [CU186] | – | – | – | – | – | – | – | 101 | 9 | 121 | 72 |
| OC(COc1ccc(Cl)c(Cl)c1)CN1CCn2cnnc2C1 (stereo not shown) [CU156] | – | – | – | – | – | – | – | 110 | 107 | 97 | 124 |
| OC(COc1ccccc1Cl)CN1CCC(Nc2nccc(C(F)(F)F)n2)C1 (stereo not shown) [CU084] | – | – | – | – | – | – | – | 93 | Toxic | 96 | 46 |
| NC1CCN(CC(O)COc2cc(Cl)cc(Cl)c2)CC1 (stereo not shown) [CU191] | – | – | – | – | – | – | – | 14 | Toxic | 100 | 15 |
| N#Cc1ccc(OCC(O)CN2CCC(Nc3nccc(C(F)(F)F)n3)CC2)cc1 (stereo not shown) [CU041] | – | – | – | – | – | – | – | 106 | 23 | 85 | 78 |
| CCOC(=O)c1cccc(OCC(O)CN2CCC(Nc3nccc(C(F)(F)F)n3)C2)c1 (stereo not shown) [CU090] | – | – | – | – | – | – | – | 70 | Toxic | 91 | 48 |
| N[C@H]1CCN(CC(O)COc2ccc(Cl)c(Cl)c2)C1 (stereo partly shown) [CU194] | – | – | – | – | – | – | – | 18 | 12 | 100 | 103 |
| OC(COc1ccc(Cl)cc1Cl)CN1CCC(Nc2ncccn2)CC1 (stereo not shown) [CU047] | – | – | – | – | – | – | – | 107 | 26 | 72 | 141 |
| OC(COc1ccc(Cl)cc1Cl)CN1CCC(NC2CC2)C1 (stereo not shown) [CU121] | – | – | – | – | – | – | – | 73 | 11 | 89 | 89 |
| OC(COc1ccc(Cl)c(Cl)c1)CN1CCN(C2COC2)CC1 (stereo not shown) [CU181] | – | – | – | – | – | – | – | 109 | 94 | 100 | 101 |
| NC1CCN(CC(COc2ccc(Cl)c(Cl)c2)OCc2ccccc2)CC1 (stereo not shown) [CU241] | – | – | 30 | Toxic | – | 110 | 6 | – | – | – | – |
| OC(COc1ccc(Cl)c(Cl)c1)CN1CC2CCC(C1)O2 (stereo not shown) [CU226] | – | – | – | – | – | – | – | 102 | 108 | 108 | 74 |
| NC1CCN(CC(O)COc2cccc3ccccc23)CC1 (stereo not shown) [CU215] | – | – | – | – | – | – | – | 44 | Toxic | 106 | 17 |
| NC1CN(CC(O)COc2ccc(Cl)c(Cl)c2)C1 (stereo not shown) [CU150] | – | – | – | – | – | – | – | – | – | 112 and 118 | 112 and 143 |

Source: publication PMC10746280, “Bacterial efflux pump modulators prevent bacterial growth in macrophages and under broth conditions that mimic the host environment” (mBio, 2023)
